Laboratory results reported in patent US10750743B2, “Pyridazinone herbicides” (E.I. DU PONT DE NEMOURS AND COMPANY, priority 2015, dated 2020).

How the values were obtained:
Assay type in all cases: in vivo
[1] = system: barnyardgrass (Echinochloa crus-galli); assay: Test A preemergence, directed soil spray, visual injury rating; settings: Echinochloa crus-galli, pre-emergence, 240 h, 0 is no effect, 100 is complete control, read-out: Plant response rating (0 to 100 scale), Barnyardgrass; for pest or weed control at 31 g/ha: 31 g ai/ha; for pest or weed control at 125 g/ha: 125 g ai/ha
In short: (§1)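 Compounds in a surfactant-containing solvent were applied as a directed soil spray preemergence, or postemergence to plants 2-10 cm tall at the one- to two-leaf stage, in loam-sand blend. After about 10 d in the greenhouse, injury was rated visually against untreated controls on a 0-100 scale (100 = complete control).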

[2] = system: foxtail, giant (giant foxtail, Setaria faberii); assay: as above; settings: Setaria faberi, pre-emergence, 240 h, 0 is no effect, 100 is complete control, read-out: Plant response rating (0 to 100 scale), Foxtail, Giant; for pest or weed control at 31 g/ha: 31 g ai/ha; for pest or weed control at 125 g/ha: 125 g ai/ha
In short: as §1

kochia (Kochia scoparia) [3] = assay: as above; settings: Bassia scoparia, pre-emergence, 240 h, 0 is no effect, 100 is complete control, read-out: Plant response rating (0 to 100 scale), Kochia; for pest or weed control at 31 g/ha: 31 g ai/ha; for pest or weed control at 125 g/ha: 125 g ai/ha
In short: as §1

[4] = system: pigweed (Amaranthus retroflexus); assay: as above; settings: Amaranthus retroflexus, pre-emergence, 240 h, 0 is no effect, 100 is complete control, read-out: Plant response rating (0 to 100 scale), Pigweed; for pest or weed control at 31 g/ha: 31 g ai/ha; for pest or weed control at 125 g/ha: 125 g ai/ha
In short: as §1

[5] = system: ragweed (common ragweed, Ambrosia elatior); assay: as above; settings: Ambrosia artemisiifolia, pre-emergence, 240 h, 0 is no effect, 100 is complete control, read-out: Plant response rating (0 to 100 scale), Ragweed; for pest or weed control at 31 g/ha: 31 g ai/ha; for pest or weed control at 125 g/ha: 125 g ai/ha
In short: as §1

[6] = system: ryegrass, It. (Italian ryegrass, Lolium multiflorum); assay: as above; settings: Lolium multiflorum, pre-emergence, 240 h, 0 is no effect, 100 is complete control, read-out: Plant response rating (0 to 100 scale), Ryegrass, It.; for pest or weed control at 31 g/ha: 31 g ai/ha; for pest or weed control at 125 g/ha: 125 g ai/ha
In short: as §1

[7] = system: ducksalad (Heteranthera limosa); assay: Test B flooded paddy test, visual rating; settings: Heteranthera limosa, 360 h; Flood, 250 g ai/ha, applied to paddy water, rated after 13 to 15 d; read-out: Ducksalad plant response rating (0 to 100 scale, 0 is no effect, 100 is complete control)
In short: (§2)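 Plants grown to the 2-leaf stage. At treatment, pots were flooded to 3 cm above the soil, compound was applied directly to the paddy water, and that depth was held throughout. After 13 to 15 d in the greenhouse, response was rated visually against controls on a 0 (no effect) to 100 (complete control) scale.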

rice (Oryza sativa) = assay: Test B flooded paddy test, visual rating; settings: Oryza sativa, 360 h; Flood, 250 g ai/ha, applied to paddy water, rated after 13 to 15 d; read-out: Rice plant response rating (0 to 100 scale, 0 is no effect, 100 is complete control)
In short: as §2

[8] = system: sedge, umbrella (small-flower umbrella sedge, Cyperus difformis); assay: Test B flooded paddy test, visual rating; settings: Cyperus difformis, 360 h; Flood, 250 g ai/ha, applied to paddy water, rated after 13 to 15 d; read-out: Sedge, Umbrella plant response rating (0 to 100 scale, 0 is no effect, 100 is complete control)
In short: as §2

[9] = system: barnyardgrass (Echinochloa crus-galli); assay: Test A postemergence application, visual injury rating; settings: Echinochloa crus-galli, post-emergence, 240 h, 0 to 100 scale, 0 no effect, 100 complete control, read-out: Barnyardgrass plant response rating; for pest or weed control at 31 g/ha: 31 g ai/ha; for pest or weed control at 125 g/ha: 125 g ai/ha
In short: as §1

[10] = system: blackgrass (Alopecurus myosuroides); assay: as above; settings: Alopecurus myosuroides, post-emergence, 240 h, 0 to 100 scale, 0 no effect, 100 complete control, read-out: Blackgrass plant response rating; for pest or weed control at 31 g/ha: 31 g ai/ha; for pest or weed control at 125 g/ha: 125 g ai/ha
In short: as §1

corn (Zea mays) = assay: as above; settings: for Plant response rating (0 to 100 scale), Corn: 31 g ai/ha, 0 is no effect, 100 is complete control; for plant injury at 125 g/ha: Zea mays, post-emergence, 240 h, 125 g ai/ha, 0 to 100 scale, 0 no effect, 100 complete control, read-out: Corn plant response rating
In short: as §1

[11] = system: foxtail, giant (giant foxtail, Setaria faberii); assay: as above; settings: for Plant response rating (0 to 100 scale), Foxtail, Giant: 31 g ai/ha, 0 is no effect, 100 is complete control; for pest or weed control at 125 g/ha: Setaria faberi, post-emergence, 240 h, 125 g ai/ha, 0 to 100 scale, 0 no effect, 100 complete control, read-out: Foxtail, Giant plant response rating
In short: as §1

[12] = system: galium (catchweed bedstraw, Galium aparine); assay: as above; settings: for Plant response rating (0 to 100 scale), Galium: 31 g ai/ha, 0 is no effect, 100 is complete control; for pest or weed control at 125 g/ha: Galium, post-emergence, 240 h, 125 g ai/ha, 0 to 100 scale, 0 no effect, 100 complete control, read-out: Galium plant response rating
In short: as §1

kochia (Kochia scoparia) [13] = assay: as above; settings: for Plant response rating (0 to 100 scale), Kochia: 31 g ai/ha, 0 is no effect, 100 is complete control; for pest or weed control at 125 g/ha: Bassia scoparia, post-emergence, 240 h, 125 g ai/ha, 0 to 100 scale, 0 no effect, 100 complete control, read-out: Kochia plant response rating
In short: as §1

[14] = system: pigweed (Amaranthus retroflexus); assay: as above; settings: for Plant response rating (0 to 100 scale), Pigweed: 31 g ai/ha, 0 is no effect, 100 is complete control; for pest or weed control at 125 g/ha: Amaranthus retroflexus, post-emergence, 240 h, 125 g ai/ha, 0 to 100 scale, 0 no effect, 100 complete control, read-out: Pigweed plant response rating
In short: as §1

[15] = system: ragweed (common ragweed, Ambrosia elatior); assay: as above; settings: for Plant response rating (0 to 100 scale), Ragweed: 31 g ai/ha, 0 is no effect, 100 is complete control; for pest or weed control at 125 g/ha: Ambrosia artemisiifolia, post-emergence, 240 h, 125 g ai/ha, 0 to 100 scale, 0 no effect, 100 complete control, read-out: Ragweed plant response rating
In short: as §1

[16] = system: ryegrass, It. (Italian ryegrass, Lolium multiflorum); assay: as above; settings: for Plant response rating (0 to 100 scale), Ryegrass, It.: 31 g ai/ha, 0 is no effect, 100 is complete control; for pest or weed control at 125 g/ha: Lolium multiflorum, post-emergence, 240 h, 125 g ai/ha, 0 to 100 scale, 0 no effect, 100 complete control, read-out: Ryegrass, It. plant response rating
In short: as §1

[17] = system: wheat (Triticum aestivum); assay: as above; settings: for Plant response rating (0 to 100 scale), Wheat: 31 g ai/ha, 0 is no effect, 100 is complete control; for plant injury at 125 g/ha: Triticum aestivum, post-emergence, 240 h, 125 g ai/ha, 0 to 100 scale, 0 no effect, 100 complete control, read-out: Wheat plant response rating
In short: as §1

SMILES	pest or weed control at 31 g/ha [1] [%]	pest or weed control at 125 g/ha [1] [%]	pest or weed control at 31 g/ha [2] [%]	pest or weed control at 125 g/ha [2] [%]	pest or weed control at 31 g/ha (kochia (Kochia scoparia) [3]) [%]	pest or weed control at 125 g/ha (kochia (Kochia scoparia) [3]) [%]	pest or weed control at 31 g/ha [4] [%]	pest or weed control at 125 g/ha [4] [%]	pest or weed control at 31 g/ha [5] [%]	pest or weed control at 125 g/ha [5] [%]	pest or weed control at 31 g/ha [6] [%]	pest or weed control at 125 g/ha [6] [%]	pest or weed control at 250 g/ha [7] [%]	plant injury at 250 g/ha (rice (Oryza sativa)) [%]	pest or weed control at 250 g/ha [8] [%]	pest or weed control at 31 g/ha [9] [%]	pest or weed control at 125 g/ha [9] [%]	pest or weed control at 31 g/ha [10] [%]	pest or weed control at 125 g/ha [10] [%]	Plant response rating (0 to 100 scale), Corn (corn (Zea mays))	other results
Cc1nn(C)c(=O)c(-c2ccc(F)c3ccoc23)c1O [Compound 68, 4-(4-fluoro-7-benzofuranyl)-5-hydroxy-2,6-dimethyl-3(2H)-pyridazinone]	0	20	0	20	30	60	0	80	30	50	20	80	0	0	0	0	10	0	60	0	plant injury at 125 g/ha (corn (Zea mays)): 0%; Plant response rating (0 to 100 scale), Foxtail, Giant [11]: 0; pest or weed control at 125 g/ha [11]: 20%; Plant response rating (0 to 100 scale), Galium [12]: 60; pest or weed control at 125 g/ha [12]: 90%; Plant response rating (0 to 100 scale), Kochia (kochia (Kochia scoparia) [13]): 20; pest or weed control at 125 g/ha (kochia (Kochia scoparia) [13]): 90%; Plant response rating (0 to 100 scale), Pigweed [14]: 0; pest or weed control at 125 g/ha [14]: 20%; Plant response rating (0 to 100 scale), Ragweed [15]: 0; pest or weed control at 125 g/ha [15]: 10%; Plant response rating (0 to 100 scale), Ryegrass, It. [16]: 80; pest or weed control at 125 g/ha [16]: 90%; Plant response rating (0 to 100 scale), Wheat [17]: 0; plant injury at 125 g/ha [17]: 0%
COc1c(C)nn(C)c(=O)c1-c1ccc(F)c2ccoc12 [Compound 69, 4-(4-fluoro-7-benzofuranyl)-5-methoxy-2,6-dimethyl-3(2H)-pyridazinone]	0	0	0	0	0	0	0	0	0	0	0	0	0	0	0	0	0	0	0	0	plant injury at 125 g/ha (corn (Zea mays)): 0%; Plant response rating (0 to 100 scale), Foxtail, Giant [11]: 0; pest or weed control at 125 g/ha [11]: 0%; Plant response rating (0 to 100 scale), Galium [12]: 0; pest or weed control at 125 g/ha [12]: 0%; Plant response rating (0 to 100 scale), Kochia (kochia (Kochia scoparia) [13]): 0; pest or weed control at 125 g/ha (kochia (Kochia scoparia) [13]): 0%; Plant response rating (0 to 100 scale), Pigweed [14]: 0; pest or weed control at 125 g/ha [14]: 0%; Plant response rating (0 to 100 scale), Ragweed [15]: 0; pest or weed control at 125 g/ha [15]: 0%; Plant response rating (0 to 100 scale), Ryegrass, It. [16]: 0; pest or weed control at 125 g/ha [16]: 0%; Plant response rating (0 to 100 scale), Wheat [17]: 0; plant injury at 125 g/ha [17]: 0%
